Laboratory results reported in ChEMBL document CHEMBL1126525, “Synthesis and DNA cleaving properties of hybrid molecules containing propargylic sulfones and minor groove binding lexitropsins” (Bioorg Med Chem Lett, 1993).

Test system: Nucleic Acid
Assay: Compound was evaluated for its binding affinity constant to calf thymus DNA
Format: nucleic-acid assay
Settings: Bos taurus

| Binding affinity [M⁻¹] | Structure (SMILES) |
| --- | --- |
| 720000 | COC(=O)c1cc(NC(=O)c2cc(NC(=O)c3cc(NC(=O)c4cccc5c(S(=O)(=O)CC#CCO)cccc45)cn3C)cn2C)cn1C |
| 46000 | O=S(=O)(CC#CCO)c1cccc2ccccc12 |
| 89000 | COC(=O)c1cc(NC(=O)c2cc(NC(=O)c3cc(NC(=O)c4cc(S(=O)(=O)CC#CCO)cc5ccccc45)cn3C)cn2C)cn1C |
